Positions count from the first letter of the chain named.

Common to all, as to test: Two-electrode voltage clamp, ACh-dependent (m2R-dependent) K+ current activation
Common to all, as to type: cell-based

In one assay the target is T1, Kir3.2 WT (Mus musculus, UniProt P48542).
T1 sequence (P48542 1-425): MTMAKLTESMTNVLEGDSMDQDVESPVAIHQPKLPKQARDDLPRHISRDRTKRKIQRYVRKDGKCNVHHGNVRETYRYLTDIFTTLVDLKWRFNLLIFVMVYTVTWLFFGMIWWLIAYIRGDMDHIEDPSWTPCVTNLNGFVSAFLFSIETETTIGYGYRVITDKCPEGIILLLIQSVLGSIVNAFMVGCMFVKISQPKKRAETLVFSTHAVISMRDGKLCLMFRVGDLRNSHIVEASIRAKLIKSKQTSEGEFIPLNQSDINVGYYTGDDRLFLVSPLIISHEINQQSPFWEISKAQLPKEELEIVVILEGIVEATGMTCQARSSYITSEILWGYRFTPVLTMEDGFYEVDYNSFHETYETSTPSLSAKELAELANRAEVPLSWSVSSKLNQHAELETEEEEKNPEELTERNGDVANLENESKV
T1 sequence (P06199 1-466 partner): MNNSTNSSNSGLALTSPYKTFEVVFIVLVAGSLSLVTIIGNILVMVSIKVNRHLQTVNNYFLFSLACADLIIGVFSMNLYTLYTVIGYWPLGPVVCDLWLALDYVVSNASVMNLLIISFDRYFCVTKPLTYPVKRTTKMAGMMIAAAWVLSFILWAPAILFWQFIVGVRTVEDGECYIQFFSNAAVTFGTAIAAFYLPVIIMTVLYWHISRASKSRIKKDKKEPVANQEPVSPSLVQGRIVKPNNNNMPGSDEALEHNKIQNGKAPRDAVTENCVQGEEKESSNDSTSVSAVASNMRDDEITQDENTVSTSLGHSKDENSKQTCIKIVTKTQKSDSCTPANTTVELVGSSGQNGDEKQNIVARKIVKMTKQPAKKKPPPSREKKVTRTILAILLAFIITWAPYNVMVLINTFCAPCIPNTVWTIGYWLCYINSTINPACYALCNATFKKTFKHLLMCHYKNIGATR
As to conditions: Kir3.2 WT with porcine m2R in Xenopus oocytes; −120 mV; Hill equation fit. From the text: (§1) The mouse Kir3.2d isoform was subjected to functional analyses. The amino acid numbers correspond to the longest mouse Kir3.2 isoform. Point mutations were introduced using the QuikChange site-directed mutagenesis kit (Stratagene, La Jolla, CA), and the presence of the mutations was confirmed by direct DNA sequencing. The care of Xenopus laevis was in accordance with the guideline of the Institute of Experimental Animal Sciences, Osaka University. The protocol was approved by the Animal Experiment Committee of Osaka University. The frogs were deeply anesthetized by immersing in 0.2% tricaine methanesulfonate for 20 min at 18°C. A portion of an ovary lobe was surgically removed and incubated with collagenase to remove follicular cells. The oocytes were injected with the cRNAs of Kir3.2 and porcine m2-muscarinic receptor (m2R), and maintained in modified Barth’s solution at 18°C with daily solution changes. Electrophysiological studies were undertaken 48–72 h later at room temperature (20–25°C). Two-electrode voltage-clamp recordings from oocytes were performed using a GeneClamp 500B amplifier (Axon Instruments, Sunnyvale, CA). […] The bath solution contained 40 mM KCl, 50 mM NaCl, 3 mM MgCl2, 0.15 mM niflumic acid, and 5 mM HEPES-KOH (pH 7.4). The currents were recorded in the absence or presence of various concentrations of acetylcholine (ACh). Ba^2+ (3 mM) was added at the end of the recording to estimate the endogenous leak current. The data are expressed as mean values ± standard error of the mean. For the quantitative estimation of ACh-dependent current responses of the wild-type (WT) and mutant channels, the current amplitudes at the end of test pulses at each ACh concentration ([ACh]) were fitted using the following equation:
(§2) I=min+[(max−min)/(1+(EC50/[ACh])^nH)]
(§3) where I is the current amplitude measured at the [ACh], n H is the Hill coefficient, and EC50 is the concentration that induces 50% of the maximal response. […] The values of n H and EC50 were calculated using a non-linear least-squares best fit (SigmaPlot 9; Systat Software). Statistical analyses were performed by one-way ANOVA with post-hoc tests.

For another assay, the target named is T2, Kir3.2 M313G (Mus musculus, UniProt P48542, I313G).
T2 sequence (P48542 19-425 I313G): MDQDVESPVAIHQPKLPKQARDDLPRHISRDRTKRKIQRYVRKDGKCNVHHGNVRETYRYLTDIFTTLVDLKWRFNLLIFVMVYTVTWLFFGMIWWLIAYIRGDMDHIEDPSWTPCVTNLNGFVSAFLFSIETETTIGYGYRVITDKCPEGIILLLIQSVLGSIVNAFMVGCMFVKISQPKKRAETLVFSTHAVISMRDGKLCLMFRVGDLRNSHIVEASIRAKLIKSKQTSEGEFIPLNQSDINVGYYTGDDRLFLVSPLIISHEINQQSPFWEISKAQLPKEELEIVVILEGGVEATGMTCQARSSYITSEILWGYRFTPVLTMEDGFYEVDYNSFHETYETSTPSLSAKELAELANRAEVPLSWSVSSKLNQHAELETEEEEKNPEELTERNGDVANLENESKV
T2 sequence (P06199 1-466 partner): T1 sequence (P06199 1-466 partner)
As to conditions: Kir3.2 M313G with porcine m2R in Xenopus oocytes; −120 mV; Hill equation fit.
Description: as §1, §2, §3

The target of another assay is T3, Kir3.2 M313R (Mus musculus, UniProt P48542, I313R).
T3 sequence (P48542 19-425 I313R): T2 sequence (P48542 19-425 I313G) with G295R
T3 sequence (P06199 1-466 partner): T1 sequence (P06199 1-466 partner)
Conditions: Kir3.2 M313R with porcine m2R in Xenopus oocytes; −120 mV; Hill equation fit, min not zero.
Description: as §1, §2, §3

A word on the Hill coefficient: it is the slope factor of the fitted curve. As to `CC(=O)OCC[N+](C)(C)C` [ACh, acetylcholine], the figures for the Hill coefficient at Kir3.2 WT, at Kir3.2 M313G and at Kir3.2 M313R were 0.83 ± 0.06, 0.98 ± 0.07 and 0.52 ± 0.08, respectively.

(Values after PMC3823594, “Conformational Changes Underlying Pore Dilation in the Cytoplasmic Domain of Mammalian Inward Rectifier K^+ Channels” (PLoS ONE, 2013).)
